Experimental data: the supplement of paper PMC8633005

What was measured:
Assay in all cases: drug sensitivity score (DSS) (DSS (unitless, 0-50 scale)); higher = more sensitive (stronger viability inhibition); extreme values may be limits of the assay
Conditions in all cases: 72 h; culture: 2D
WM852 = tested on: WM852
Outline: (§1)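 A 527-compound oncology library was screened in 384-well plates against melanoma cell lines and patient-derived melanoma cultures grown in 2D, the cultures at 1000–1500 cells per well. Each compound, in DMSO or water, was applied at five concentrations over a 10,000-fold range and incubated for 72 h at 37 °C before CellTiter-Glo luminescence readout of viability. A drug sensitivity score, a modified area-under-curve measure, was calculated from curves fitted in the in-house Breeze software.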

FM-MEL-2 = tested on: FM-MEL-2
Outline: as §1

FM-MEL-3 = tested on: FM-MEL-3
Outline: as §1

FM-MEL-6 = tested on: FM-MEL-6
Outline: as §1

WM165 = tested on: WM165
Outline: as §1

SK-MEL-2 = tested on: SK-MEL-2
Outline: as §1

Bowes = tested on: Bowes
Outline: as §1

SK-MEL-28 = tested on: SK-MEL-28
Outline: as §1

Compound | drug sensitivity score (WM852) | drug sensitivity score (FM-MEL-2) | drug sensitivity score (FM-MEL-3) | drug sensitivity score (FM-MEL-6) | drug sensitivity score (WM165) | drug sensitivity score (SK-MEL-2) | drug sensitivity score (Bowes) | drug sensitivity score (SK-MEL-28)
Cc1nc2cccc(N)c2c(=O)n1C1CCC(=O)NC1=O (stereo not given) [CC122] | 0 | 0 | 0.2 | 1.3 | 0 | 0 | 0 | 0
CCN1C(=O)CNc2ncc(-c3ccc(-c4nc[nH]n4)nc3C)nc21 [CC-115] | 5 | 10.7 | 8.5 | 9.5 | 10.4 | 9.8 | 8.2 | 6.5
CO[C@H]1CC[C@H](N2C(=O)CNc3ncc(-c4ccc(C(C)(C)O)nc4)nc32)CC1 [CC-223] | 4.2 | 7.4 | 5.1 | 5.9 | 7.1 | 3.1 | 4.1 | 5.2
COc1cc(C)[nH]c(=O)c1CNC(=O)c1c(C)n([C@H](C)C2CCOCC2)c2ccccc12 [CPI-360] | 0 | 0.2 | 0 | 0.6 | 0 | 0 | 0 | 0
Cc1noc2c1-c1ccccc1C(c1ccc(Cl)cc1)=N[C@H]2CC(N)=O [CPI-0610] | 0 | 5.2 | 4.8 | 0 | 6.6 | 1 | 3.8 | 2.8
O=C(O)CCCCC(CCSCc1ccccc1)SCc1ccccc1 (stereo not given) [CPI-613] | 0 | 0 | 0 | 0 | 0 | 0 | 0 | 0
CN(C)c1cc2c(cc1Sc1nc3c(N)nccc3n1CCNCC(C)(C)C)OCO2 [CUDC-305] | 7.2 | 9.7 | 13 | 5.3 | 16.1 | 10.7 | 13.8 | 8.6
COc1ccc(-c2nc(N3CCOCC3)c3sc(CN(C)c4ncc(C(=O)NO)cn4)cc3n2)cn1 [CUDC-907] | 20.8 | 33.1 | 36.9 | 32.8 | 38.5 | 33.1 | 22.5 | 28
CO[C@H]1C(=O)[C@]2(C)[C@@H](OC)C[C@H]3OC[C@@]3(OC(C)=O)[C@H]2[C@H](OC(=O)c2ccccc2)[C@]2(O)C[C@H](OC(=O)[C@H](O)[C@@H](NC(=O)OC(C)(C)C)c3ccccc3)C(C)=C1C2(C)C [Cabazitaxel] | 20.3 | 1.6 | 8.2 | 12.1 | 23.2 | 14.8 | 24.3 | 9.1
COc1cc2nccc(Oc3ccc(NC(=O)C4(C(=O)Nc5ccc(F)cc5)CC4)cc3)c2cc1OC [Cabozantinib] | 0.8 | 2.2 | 2.5 | 0.2 | 0 | 0 | 2.1 | 0
C=CC(=O)Nc1cc2c(Nc3ccc(F)c(Cl)c3)ncnc2cc1OCCCN1CCOCC1 [Canertinib] | 6.5 | 8.4 | 9.1 | 6.3 | 7.5 | 4.9 | 8.7 | 3.5
CCCCCOC(=O)Nc1nc(=O)n([C@@H]2O[C@H](C)[C@@H](O)[C@H]2O)cc1F [Capecitabine] | 0 | 0 | 0 | 0 | 0 | 0 | 0 | 0
CNC(=O)c1ccc(-c2cnc3ncc(Cc4ccc5ncccc5c4)n3n2)cc1F [Capmatinib] | 0 | 0 | 0 | 0 | 0 | 0 | 0 | 0
O=C(O)C1(C(=O)O)CCC1.[NH2-].[NH2-].[Pt+2] [Carboplatin] | 0 | 0.9 | 2.8 | 7.8 | 10.2 | 2 | 0 | 3.2
CC(C)C[C@H](NC(=O)[C@H](CCc1ccccc1)NC(=O)CN1CCOCC1)C(=O)N[C@@H](Cc1ccccc1)C(=O)N[C@@H](CC(C)C)C(=O)[C@@]1(C)CO1 [Carfilzomib] | 24.5 | 11 | 17.4 | 20.4 | 29.6 | 22.5 | 31.7 | 17
COc1cc2c(Oc3ccc4[nH]c(C)cc4c3F)ncnc2cc1OCCCN1CCCC1 [Cediranib] | 0 | 0 | 0 | 1.3 | 0 | 0 | 1.7 | 0
Cc1ccc(-c2cc(C(F)(F)F)nn2-c2ccc(S(N)(=O)=O)cc2)cc1 [Celecoxib] | 0 | 0 | 0 | 0 | 0 | 0 | 0 | 0
CCS(=O)(=O)N1CCN(c2ccc(Nc3ncc(C(N)=O)c(NC4CC4)n3)cc2)CC1 [Cerdulatinib] | 4 | 0 | 0 | 0.1 | 4.6 | 0 | 0.8 | 0
Cc1cc(Nc2ncc(Cl)c(Nc3ccccc3S(=O)(=O)C(C)C)n2)c(OC(C)C)cc1C1CCNCC1 [Ceritinib] | 1 | 4.3 | 4.3 | 2.6 | 4.5 | 0 | 0.3 | 1.5
CCN(CC)CCCC(C)Nc1ccnc2cc(Cl)ccc12 (stereo not given) [Chloroquine] | 8.6 | 9.4 | 7.3 | 9.4 | 9.7 | 7 | 7 | 8.3
